Reference: US20070224167A1, “Novel HCV inhibitor combinations and methods” (priority 2006, published 2007)

Assays:
[1] = system: HCV replicon cells (Huh-7 cells); experiment: Inhibition of replicon RNA levels (3-day assay, Taqman); format: cell-based; conditions: Hepatitis C virus
Method: Replicon cells are seeded at ˜5000 cells/well in 96-well collagen I-coated Biocoat plates (Becton Dickinson). Twenty-four hrs post-seeding, inhibitors diluted in DMSO are added to replicon cells (Huh-7 cells). The final concentrations of DMSO and fetal bovine serum are 1% and 10%, respectively. SCH 503034 is serially diluted at 1:2 for a 10-point titration. To each concentration of the SCH 503034, the second inhibitor, HCV-796 or rhIFN-α2b control is titrated in. IFN-α is serially diluted at 1:3, whereas HCV RNA polymerase inhibitor, HCV-796, is serially diluted at 1:2. […] All samples are tested in triplicate. Media and inhibitors are refreshed daily for 3 days at which point the cells are washed with PBS and lysed in 1× cell lysis buffer (Ambion cat #8721). The replicon RNA level is measured using real time PCR (Taqman assay) The amplicon is located in 5B. The PCR primers are: 5B.2F, […] (SEQ ID NO:1) and 5B.2R, […] (SEQ ID NO:2). The probe sequence is FAM-labeled […] (SEQ ID NO:3). GAPDH RNA is used as an endogenous control and is amplified in the same reaction as NS5B (multiplex PCR) using primers and VIC-labeled probe recommended by the manufacturer (PE Applied Biosystem). The real-time RT-PCR reactions are run on an AB1 PRISM 7900HT Sequence Detection System using the following program: 48° C. for 30 min, 95° C. for 10 min, 40 cycles of 95° C. for 15 sec, […] for 1 min. […]

[2] = system: GAPDH RNA, Huh7-1a replicon cells; experiment: GAPDH RNA in genotype 1a (H77) replicon cells; format: cell-based; conditions: Homo sapiens, 72 h, read-out: GAPDH EC50
Method: HCV genotype 1b, BB7 replicon-containing cell line is derived from a human hepatoma cell line (Huh7). A genotype 1a (H77 isolate; GenBank Accession #AF009606) is derived from replicon-containing cell line (Huh7-1a). The cell lines are cultured at 37° C. and 5% CO2 in Dulbecco's Modified Eagle Media (D-MEM; Invitrogen #11965-084) containing 10% fetal bovine serum (FBS; HyClone #SH300070) supplemented with 1% penicillin/streptomycin (Invitrogen #15140-122), 1% non-essential amino acids (Invitrogen #11140-050), 0.66 mM HEPES buffer, pH 7.55 (Invitrogen #15630-080), and 1 mg/mL G418 (Geneticin®, Invitrogen #11811-031 or #10131-027). Genotype 1a and genotype 1b replicon-containing cell lines contain approximately 1000 and 2000 RNA genome equivalents per cell, respectively, when maintained in a subconfluent monolayer in the presence of 1 mg/mL G418. For compound testing, G418 is eliminated and the FBS concentration is reduced to 2%.
Genotype 1b (BB7) and 1a (H77) cells are seeded in 96-well plates at a sub-confluent density (7000 cells/well) in medium containing 2% FBS without G418. […] The amounts of HCV, rRNA and GAPDH RNAs are quantified using the TaqMan RT-PCR assay.

Structure (SMILES)	IC90 [1]	EC50 [2]
CNC(=O)c1c(-c2ccc(F)cc2)oc2cc(N(CCO)S(C)(=O)=O)c(C3CC3)cc12 [HCV-796, 5-cyclopropyl-2-(4-fluoro-phenyl)-6-[(2-hydroxy-ethyl)-methanesulfonyl-amino]-benzofuran-3-carboxylic acid methylamide]	30 nM	> 5600 nM
CC(C)(C)NC(=O)N[C@H](C(=O)N1C[C@H]2[C@@H]([C@H]1C(=O)NC(CC1CCC1)C(=O)C(N)=O)C2(C)C)C(C)(C)C (stereo partly drawn) [SCH 503034, (1R,5S)—N-[3-amino-1-(cyclobutylmethyl)-2,3-dioxopropyl]-3-[2(S)-[[[(1,1-dimethylethyl)amino]carbonyl]amino]-3,3-dimethyl-1-oxobutyl]-6,6-dimethyl-3-azabicyclo[3.1.0]hexan-2(S)-carboxamide]	400 nM	> 3200 nM
